Assay results reported in patent publication US11440923B2, “Substituted macrocyclic indole derivatives” (Bayer Aktiengesellschaft, priority 2017, dated 2022).
Where a name gives a salt, the structure may show the parent alone. Read-outs that look alike come from different tables or passages of the source.

What was measured:
Format in all cases: cell-based
SUDHL5 cells [1] = assay: Induction of caspase-3/7 activity in SUDHL5 cells (Assay 4)
Procedure: (§1) Induction of Caspase-3/7 Activity Upon Treatment of Cells with Selected Compounds
(§2) The BH3-domain of MCL-1 sequesters pro-apoptotic proteins, thereby inhibiting apoptosis. In contrast, MCL-1 inhibitors are expected to antagonize this effect leading to an increase in apoptosis, which can be determined by measuring the activity of caspase-3/7.
(§3) The activity of caspase-3/7 was determined in DLBCL (Diffuse large B-cell lymphoma) cell lines (SUDHL5 and SUDHL10) upon treatment with different compounds, using the Caspase-Glo® 3/7 reagent from Promega (G8092).
(§4) As a control, medium without cells was also added to the plate. Cells were incubated in a humidified incubator at 37° C. overnight.
(§5) Rim wells were excluded. The cells were incubated for 3 h hours in a humidified incubator at 37° C. After this incubation, 30 μL of Caspase-Glo® 3/7 reagent (Promega G8092) was added to each well using the Multidrop Combi Reagent Dispenser, followed by 1 h incubation at 37° C. Finally, luminescence was read at 0.1 ms, with a gain of 3000 using the PHERAstar FS microplate reader (BMG Labtech).
(§6) For the evaluation of the results, the background measured with “medium-only” was subtracted from all other values. Then, the values were normalized to DMSO-only treated cells (every value was divided by the mean of the DMSO control).

SUDHL10 cells [2] = assay: Induction of caspase-3/7 activity in SUDHL10 cells (Assay 4)
Procedure: as §1, §2, §3, §4, §5, §6

SUDHL5 cells [3] = assay: Induction of cytotoxicity in SUDHL5 cells (Assay 6); conditions: 5 h, CellTiter-Glo, read-out: Cytotox SUDHL5 IC50 (median)
Procedure: (§7) Assay 6 Induction of Cytotoxicity Upon Treatment of Cells with Selected Compounds
(§8) In principle, compounds that induce apoptosis will concomitantly induce cell cytotoxicity. Therefore, cytotoxicity assays were run in parallel in SUDHL5 and SUDHL10 cells.
(§9) As a control, medium without cells was also added to the plate. Cells were incubated in a humidified incubator at 37° C. overnight. […] Rim wells were excluded. The cells were incubated for 5 h hours in a humidified incubator at 37° C. After this incubation, 30 μL of CellTiter-Glo® Luminescent Cell Viability reagent (Promega, G7573) was added to each well using the Multidrop Combi Reagent Dispenser, followed by 15 min incubation on a shaker at room temperature. Finally, luminescence was read at 0.1 ms, with a gain of 3000 using the PHERAstar FS microplate reader (BMG Labtech).

SUDHL10 cells [4] = assay: Induction of cytotoxicity in SUDHL10 cells (Assay 6); conditions: 5 h, CellTiter-Glo, read-out: Cytotox SUDHL10 IC50 (median)
Procedure: as §7, §8, §9

SUDHL5 cells [5] = assay: Antiproliferation assay SUDHL5 (Assay 7)
Procedure: (§10) Assessment of the Anti-Proliferative Effect of Compounds in Different Cell Lines
(§11) The impact of compounds on the proliferation of different cell lines was assessed using the CellTiter-Glo® Luminescent Cell Viability reagent from Promega (G7573).
(§12) In parallel, cells were plated in a reference (day 0) plate for time zero determination. Cells were incubated in a humidified incubator at 37° C. overnight.
(§13) Rim wells were excluded. The cells were incubated for 72 h hours in a humidified incubator at 37° C. The day 0 plate was measured by adding 30 μL/well of CTG solution (CellTiter-Glo® Luminescent Cell Viability reagent, Promega G7573) to time zero wells in the reference plate followed by a 10 minutes incubation and luminescence reading at 0.1 ms. using the PHERAstar FS microplate reader (BMG Labtech).
(§14) After 72 h incubation, the treated plates were measured in the same way as the day 0 plate mentioned above. The Bella DRC Master Sheet was used to calculate IC50s, with CI=day 0 values and C0=DMSO control values.

AMO-1 cells = assay: Antiproliferation assay AMO-1 (Assay 7)
Procedure: as §10, §11, §12, §13, §14

HMC-1-8 cells = assay: Antiproliferation assay HMC-1-8 (Assay 7)
Procedure: as §10, §11, §12, §13, §14

[6] = caspase-3/7 induction, 3 h; read-out: Caspase SUDHL5 EC50 (median)
[7] = caspase-3/7 induction, 3 h; read-out: Caspase SUDHL10 EC50 (median)
[8] = 72 h, CellTiter-Glo; read-out: Antiproli SUDHL5 IC50 (median)
[9] = 72 h, CellTiter-Glo; read-out: Antiproli AMO-1 IC50 median
[10] = 72 h, CellTiter-Glo; read-out: Antiproli HMC-1-8 IC50 median
[11] = Homo sapiens, SU-DHL-5, 3 h, caspase-3/7 induction, 3 h; read-out: Caspase SUDHL5 EC50 (median)
[12] = Homo sapiens, SU-DHL10, 3 h, caspase-3/7 induction, 3 h; read-out: Caspase SUDHL10 EC50 (median)
[13] = Homo sapiens, SU-DHL-5, 72 h, 72 h, CellTiter-Glo; read-out: Antiproli SUDHL5 IC50 (median)
[14] = Homo sapiens, AMO1, 72 h, 72 h, CellTiter-Glo; read-out: Antiproli AMO-1 IC50 median
[15] = 72 h, CellTiter-Glo, read-out: Antiproli HMC-1-8 IC50 median

EC50 (SUDHL5 cells [1]; [6]) [µM]	EC50 (SUDHL10 cells [2]; [7]) [µM]	IC50 (SUDHL5 cells [5]; [8]) [µM]	Structure (SMILES)	IC50 (SUDHL5 cells [3]) [µM]	IC50 (SUDHL10 cells [4]) [µM]	IC50 (AMO-1 cells; [9]) [µM]	IC50 (HMC-1-8 cells; [10]) [µM]	further results
0.21	0.23	0.26	CCc1c2c(nn1C)C(CCN1CCOCC1)N(C)CCCCn1c(C(=O)O)c(CCCOc3cccc4ccccc34)c3ccc(Cl)c-2c31 (racemic) [Example 100, (rac)-4-chloro-3-ethyl-2,14-dimethyl-(15-rac)-[2-(morpholin-4-yl)ethyl]-7-{3-[(naphthalen-1-yl)oxy]propyl}-10,11,12,13,14,15-hexahydro-2H-pyrazolo[3′,4′:8,9][1,6]diazacycloundecino[10,11,1-hi]indole-8-carboxylic]	0.34	0.32	0.224	3.56	–
1	1.5	1.2	CCc1c2c(nn1C)C(CCN1CCOCC1)N(C)CCCCn1c(C(=O)O)c(CCCOc3cccc4cc(F)ccc34)c3ccc(Cl)c-2c31 (stereo not drawn) [Example 98, 4-chloro-3-ethyl-7-{3-[(6-fluoronaphthalen-1-yl)oxy]propyl}-2,14-dimethyl-15-[2-(morpholin-4-yl)ethyl]-10,11,12,13,14,15-hexahydro-2H-pyrazolo[3′,4′:8,9][1,6]diazacycloundecino[10,11,1-hi]indole-8-carboxylic Acid—N-ethylethanamine Salt]	1.4	–	0.86	11.5	–

The remaining lines, values behind:

Structure (SMILES)	EC50 (SUDHL5 cells [1]; [6]) [µM]	EC50 (SUDHL10 cells [2]; [7]) [µM]	IC50 (SUDHL5 cells [5]; [8]) [µM]	IC50 (SUDHL5 cells [3]) [µM]	IC50 (SUDHL10 cells [4]) [µM]	IC50 (AMO-1 cells; [9]) [µM]	IC50 (HMC-1-8 cells; [10]) [µM]	further results
CCc1c2c(nn1C)C1CCCCN1CCCCn1c(C(=O)O)c(CCCOc3cccc4ccccc34)c3ccc(Cl)c-2c31 (racemic) [Example 103, (rac)-18-chloro-1-ethyl-2-methyl-15-[3-(1-naphthyloxy)propyl]-2,3b,4,5,6,7,9,10,11,12-decahydropyrazolo[3′,4′:8,9]pyrido[1′,2′:6,7][1,6]diazacycloundecino[10,11,1-hi]indole-14-carboxylic Acid]	–	–	–	–	–	–	–	EC50 (SUDHL5 cells [1]; [11]): 1.4 µM; EC50 (SUDHL10 cells [2]; [12]): 2.2 µM; IC50 (SUDHL5 cells [3]; Homo sapiens, SU-DHL-5, 5 h): 1.1 µM; IC50 (SUDHL10 cells [4]; Homo sapiens, SU-DHL10, 5 h): 1.7 µM; IC50 (SUDHL5 cells [5]; [13]): 2 µM; IC50 (AMO-1 cells; [14]): 1.95 µM; IC50 (HMC-1-8 cells; [15]): 19.8 µM
CCc1c2c(nn1C)C(CCN(C)C)OCCCCn1c(C(=O)O)c(CCCOc3cccc4cc(F)ccc34)c3ccc(Cl)c-2c31 (single isomer, unassigned) [Example 82, 4-chloro-15-[2-(dimethylamino)ethyl]-3-ethyl-7-{3-[(6-fluoronaphthalen-1-yl)oxy]propyl}-2-methyl-2,10,11,12,13,15-hexahydropyrazolo[4′,3′:9,10][1,6]oxazacycloundecino[8,7,6-hi]indole-8-carboxylic Acid]	2.7	4.5	4.2	2.6	3.1	7.56	> 33	–
CCc1c2c(nn1C)C(CCN1CCOCC1)OCC(F)(F)CCn1c(C(=O)O)c(CCCOc3cccc4cc(F)ccc34)c3ccc(Cl)c-2c31 (single isomer, unassigned; (-)) [Example 88, (−)-4-chloro-3-ethyl-12,12-difluoro-7-{3-[(6-fluoronaphthalen-1-yl)oxy]propyl}-2-methyl-15-[2-(morpholin-4-yl)ethyl]-2,10,11,12,13,15-hexahydropyrazolo[4′,3′:9,10][1,6]oxazacycloundecino[8,7,6-hi]indole-8-carboxylic Acid]	0.56	1.1	0.57	0.76	–	1.35	3.12	–
CCc1c2c(nn1C)C(CCN1CCOCC1)OCC(F)(F)CCn1c(C(=O)O)c(CCCOc3cccc4cc(F)ccc34)c3ccc(Cl)c-2c31 (single isomer, unassigned; (-)) [Example 91, (−)-4-chloro-3-ethyl-12,12-difluoro-7-{3-[(6-fluoronaphthalen-1-yl)oxy]propyl}-2-methyl-15-[2-(morpholin-4-yl)ethyl]-2,10,11,12,13,15-hexahydropyrazolo[4′,3′:9,10][1,6]oxazacycloundecino[8,7,6-hi]indole-8-carboxylic Acid]	0.66	0.89	1	0.79	–	0.729	6.1	–
CCc1c2c(nn1C)C(CCN1CCN(C)CC1)OCCCCn1c(C(=O)O)c(CCCOc3cccc4cc(F)ccc34)c3ccc(Cl)c-2c31 (single isomer, unassigned; stereoisomer 2) [Example 70, (+)-4-chloro-3-ethyl-7-{3-[(6-fluoronaphthalen-1-yl)oxy]propyl}-2-methyl-15-[2-(4-methylpiperazin-1-yl)ethyl]-2,10,11,12,13,15-hexahydropyrazolo[4′,3′:9,10][1,6]oxazacycloundecino[8,7,6-hi]indole-8-carboxylic Acid—N-ethylethanamine Salt (Stereoisomer 2)]	–	–	–	–	20	–	–	EC50 (SUDHL5 cells [1]; read-out: Caspase SUDHL5 EC50 (median); caspase-3/7 induction, 3 h): 13 µM; EC50 (SUDHL10 cells [2]; read-out: Caspase SUDHL10 EC50 (median); caspase-3/7 induction, 3 h): 14 µM; IC50 (SUDHL5 cells [5]; read-out: Antiproli SUDHL5 IC50 (median); 72 h, CellTiter-Glo): 5 µM; IC50 (AMO-1 cells; read-out: Antiproli AMO-1 IC50 median; 72 h, CellTiter-Glo): 12.5 µM; IC50 (HMC-1-8 cells; read-out: Antiproli HMC-1-8 IC50 median; 72 h, CellTiter-Glo): 16.8 µM
CCc1c2c(nn1C)C(CCN1CCN(C)CC1)OCCCCn1c(C(=O)O)c(CCCOc3cccc4cc(F)ccc34)c3ccc(Cl)c-2c31 (single isomer, unassigned; stereoisomer 4) [Example 73, (−)-4-chloro-3-ethyl-7-{3-[(6-fluoronaphthalen-1-yl)oxy]propyl}-2-methyl-15-[2-(4-methylpiperazin-1-yl)ethyl]-2,10,11,12,13,15-hexahydropyrazolo[4′,3′:9,10][1,6]oxazacycloundecino[8,7,6-hi]indole-8-carboxylic Acid (Stereoisomer 4)]	–	–	–	–	–	–	–	EC50 (SUDHL5 cells [1]; [11]): 5.2 µM; EC50 (SUDHL10 cells [2]; [12]): 8.8 µM; IC50 (SUDHL5 cells [3]; Homo sapiens, SU-DHL-5, 5 h): 7.7 µM; IC50 (SUDHL5 cells [5]; [13]): 6.1 µM; IC50 (AMO-1 cells; [14]): 3.84 µM; IC50 (HMC-1-8 cells; [15]): > 33 µM
CCc1c2c(nn1C)C(CCN1CCOCC1)OCC(F)(F)CCn1c(C(=O)O)c(CCCOc3cccc4cc(F)ccc34)c3ccc(Cl)c-2c31 (stereo not drawn) [Example 86, 4-chloro-3-ethyl-12,12-difluoro-7-{3-[(6-fluoronaphthalen-1-yl)oxy]propyl}-2-methyl-15-[2-(morpholin-4-yl)ethyl]-2,10,11,12,13,15-hexahydropyrazolo[4′,3′:9,10][1,6]oxazacycloundecino[8,7,6-hi]indole-8-carboxylic Acid]	0.1	0.14	0.2	0.15	–	0.193	1.59	–
